Measurements published in patent US12599560B2, “Lipids and lipid nanoparticle formulations” (Longuide Biopharma Corporation, priority 2023, dated 2026).

Legend:
mice = assay: In vivo delivery of FLuc-mRNA lipid nanoparticle preparations in mice (IVIS imaging); design: In vivo IVIS / In vivo IVIS (liver) / In vivo IVIS (spleen): unit not given here; conditions: Table 4
Description: 7. In Vivo Delivery of the Nucleic Acid Lipid Nanoparticle Preparations in Mice After the preparation was completed, the preparation was injected intramuscularly (mice rectus femoris muscle of the thigh) or intravenously (mice tail vein), with approximately 75 μL per mouse, for a total of 3 mice. After a certain time of injection, in vivo imaging (PerkinElmer, IVIS Lumina III) was performed. 10-15 minutes before imaging, 200 μL of 15 mg/mL D-Luciferin working solution was injected intraperitoneally, and the imaging analysis was performed using an in vivo imager.

[1] = Particle size and PDI by dynamic light scattering; type: physicochemical; conditions: Table 4
Description: The 7.5 μL nucleic acid lipid nanoparticle solution (containing approximately 0.04 mg/mL mRNA) was taken and added with 200 μL ultrapure water, mixed by gentle blowing using a pipette tip, and the particle size of the nanopreparation was detected by dynamic lightscattering (DLS) using a Malvern Dynamic Light Scattering Instrument (Malvern Instruments Ltd., ZEN3700, UK). 27.5 μL nucleic acid lipid nanoparticle solution (containing about 0.04 mg/mL mRNA) was taken and added with 200 μL ultrapure water. A pipette tip was used to gently blow the sample and mix well. The particle size of the nanopreparation was detected by Malvern Dynamic Light Scattering Instrument (Malvern Instruments Ltd., ZEN3700, UK). After the detection, the sample was recovered to an EP tube, and 600 μL of ultrapure water was added, gently blown with a pipette tip, and the potential of the nanopreparation was measured by a Malvern particle size meter.

[2] = molar ratio 1.40:11.15:38.95:48.50, N/P 36, IV formulation
[3] = molar ratio 2.00:4.00:59.00:35.00, N/P 35, IM formulation
[4] = molar ratio 1.40:11.15:38.95:48.50, N/P 32, IV formulation
[5] = molar ratio 1.40:11.15:38.95:48.50, N/P 28, IM formulation
[6] = molar ratio 2.50:11.50:51.00:35.00, N/P 32, IV formulation

| Compound | In vivo IVIS (mice; IM) | In vivo IVIS (mice; IV) | PDI [1] | Particle size (nm) [1] [nm] | further results |
| --- | --- | --- | --- | --- | --- |
| CCCCCCCCCCCCOC(=O)C(O)CN(Cc1ccc(CN(CC(O)C(=O)OCCCCCCCCCCCC)CC(O)C(=O)OCCCCCCCCCCCC)cc1)CC(O)C(=O)OCCCCCCCCCCCC (stereo not drawn) [Compound L0207] | 1.75 × 10^5 | 2.41 × 10^5 | 0.19 ± 0.00 | 172.13 ± 1.53 | – |
| CCCCCCCCCCCCNC(=O)C(O)CN(Cc1ccc(CN(CC(O)C(=O)NCCCCCCCCCCCC)CC(O)C(=O)NCCCCCCCCCCCC)cc1)CC(O)C(=O)NCCCCCCCCCCCC (stereo not drawn) [Compound L0208] | 1.94 × 10^6 | 2.27 × 10^5 | 0.14 ± 0.03 | 176.67 ± 1.97 | – |
| CCCCCCCCCCOC(=O)C(O)CN(CCCN1CCN(CCCN(CC(O)C(=O)OCCCCCCCCCC)CC(O)C(=O)OCCCCCCCCCC)CC1)CC(O)C(=O)OCCCCCCCCCC (stereo not drawn) [Compound L0209] | 7.33 × 10^8 | 1.52 × 10^10 | – | – | Particle size (nm) ([1]; molar ratio 1.00:6.00:44.50:48.50, N/P 40, IV formulation): 99.95 ± 0.74 nm; Particle size (nm) ([1]; molar ratio 1.50:6.00:57.50:35.00, N/P 48, IM formulation): 84.17 ± 0.31 nm |
| CCCCCCCCCCOC(=O)C(O)CN(CCN1CCN(CCN(CC(O)C(=O)OCCCCCCCCCC)CC(O)C(=O)OCCCCCCCCCC)CC1)CCN(CC(O)C(=O)OCCCCCCCCCC)CC(O)C(=O)OCCCCCCCCCC (stereo not drawn) [Compound L0210] | 2.48 × 10^7 | 6.93 × 10^9 | 0.15 ± 0.01 | – | Particle size (nm) ([1]; molar ratio 1.00:16.00:48.00:35.00, N/P 30, IV formulation): 101.83 ± 0.21 nm; Particle size (nm) ([1]; molar ratio 1.40:11.15:38.95:48.50, N/P 40, IM formulation): 94.89 ± 0.78 nm |
| CCCCCCCCCCOC(=O)C(O)CN(Cc1ccc(CN(CC(O)C(=O)OCCCCCCCCCC)CC(O)C(=O)OCCCCCCCCCC)cc1)CC(O)C(=O)OCCCCCCCCCC (stereo not drawn) [Compound L0211] | 1.37 × 10^5 | 1.36 × 10^5 | 0.22 ± 0.00 | 134.47 ± 2.72 | – |
| CCCCCCCCCCCCOC(=O)C(O)CN[C@H]1CC[C@@H](N(CC(O)C(=O)OCCCCCCCCCCCC)CC(O)C(=O)OCCCCCCCCCCCC)CC1 (stereo partly drawn) [Compound L0212] | 1.40 × 10^7 | 1.38 × 10^8 | 0.18 ± 0.01 | 95.87 ± 0.24 | – |
| CCCCCCCCCCCCNC(=O)C(O)CN(CC(O)C(=O)NCCCCCCCCCCCC)[C@H]1CC[C@@H](N(CC(O)C(=O)NCCCCCCCCCCCC)CC(O)C(=O)NCCCCCCCCCCCC)CC1 (stereo partly drawn) [Compound L0213] | 2.36 × 10^5 | 3.64 × 10^5 | 0.18 ± 0.01 | 174.43 ± 1.85 | – |
| CCCCCCCCCCCCNC(=O)C(O)CN(CC(O)C(=O)NCCCCCCCCCCCC)[C@H]1CC[C@H](N(CC(O)C(=O)NCCCCCCCCCCCC)CC(O)C(=O)NCCCCCCCCCCCC)CC1 (stereo partly drawn) [Compound L0214] | 2.46 × 10^5 | 3.60 × 10^5 | 0.21 ± 0.01 | 177.07 ± 1.00 | – |
| CCCCCCCCCCNC(=O)C(O)CN(Cc1ccc(CN(CC(O)C(=O)NCCCCCCCCCC)CC(O)C(=O)NCCCCCCCCCC)cc1)CC(O)C(=O)NCCCCCCCCCC (stereo not drawn) [Compound L0215] | 2.45 × 10^5 | 4.06 × 10^5 | 0.11 ± 0.01 | 119.27 ± 1.75 | – |
| CCCCCCCCCCNC(=O)C(O)CN(CC(O)C(=O)NCCCCCCCCCC)[C@H]1CC[C@@H](N(CC(O)C(=O)NCCCCCCCCCC)CC(O)C(=O)NCCCCCCCCCC)CC1 (stereo partly drawn) [Compound L0216] | 3.58 × 10^5 | 2.18 × 10^5 | 0.08 ± 0.02 | 117.97 ± 1.91 | – |
| CCCCCCCCCCNC(=O)C(O)CN[C@H]1CC[C@@H](N(CC(O)C(=O)NCCCCCCCCCC)CC(O)C(=O)NCCCCCCCCCC)CC1 (stereo partly drawn) [Compound L0217] | 2.97 × 10^6 | 2.87 × 10^7 | 0.09 ± 0.02 | 87.05 ± 0.47 | – |
| CCCCCCCCCCNC(=O)C(O)CN(CC(O)C(=O)NCCCCCCCCCC)[C@H]1CC[C@H](N(CC(O)C(=O)NCCCCCCCCCC)CC(O)C(=O)NCCCCCCCCCC)CC1 (stereo partly drawn) [Compound L0218] | 8.49 × 10^5 | 5.55 × 10^5 | 0.07 ± 0.02 | 109.43 ± 1.16 | – |
| CCCCCCCCCCNC(=O)C(O)CN[C@H]1CC[C@H](N(CC(O)C(=O)NCCCCCCCCCC)CC(O)C(=O)NCCCCCCCCCC)CC1 (stereo partly drawn) [Compound L0219] | 2.79 × 10^6 | 8.48 × 10^7 | 0.09 ± 0.01 | 102.47 ± 0.96 | – |
| CCCCCCOC(C)OCCCCCCOC(=O)C(O)CN1CCN(CCN(CC(O)C(=O)OCCCCCCOC(C)OCCCCCC)CC(O)C(=O)OCCCCCCOC(C)OCCCCCC)CC1 (stereo not drawn) [Compound L0220] | 1.32 × 10^6 | 1.82 × 10^8 | 0.08 ± 0.02 | 106.97 ± 0.21 | – |
| CC/C=C\CCOCOCCCCCCOC(=O)C(O)CN1CCN(CCN(CC(O)C(=O)OCCCCCCOCOCC/C=C\CC)CC(O)C(=O)OCCCCCCOCOCC/C=C\CC)CC1 (stereo not drawn) [Compound L0221] | 1.85 × 10^5 | 3.94 × 10^5 | 0.07 ± 0.02 | 140.97 ± 1.48 | – |
| CCCC/C=C\CCOCOCCCCOC(=O)C(O)CN1CCN(CCN(CC(O)C(=O)OCCCCOCOCC/C=C\CCCC)CC(O)C(=O)OCCCCOCOCC/C=C\CCCC)CC1 (stereo not drawn) [Compound L0222] | 4.38 × 10^5 | 7.94 × 10^6 | 0.05 ± 0.01 | 133.83 ± 0.72 | – |
| CCCCCCCC/C=C\CCCCCCCCNC(=O)C(O)CN1CCN(CCN(CC(O)C(=O)NCCCCCCCC/C=C\CCCCCCCC)CC(O)C(=O)NCCCCCCCC/C=C\CCCCCCCC)CC1 (stereo not drawn) [Compound L0223] | 1.83 × 10^6 | 1.42 × 10^8 | 0.13 ± 0.03 | 98.88 ± 1.32 | – |
| CCCCCCOC(C)OCCCCCCOC(=O)C(O)CN(CCCN1CCN(CCCN(CC(O)C(=O)OCCCCCCOC(C)OCCCCCC)CC(O)C(=O)OCCCCCCOC(C)OCCCCCC)CC1)CC(O)C(=O)OCCCCCCOC(C)OCCCCCC (stereo not drawn) [Compound L0224] | 3.31 × 10^8 | 4.84 × 10^9 | – | – | PDI [1, 2]: 0.07 ± 0.02; Particle size (nm) [1, 2]: 108.57 ± 1.60 nm; PDI [1, 3]: 0.14 ± 0.01; Particle size (nm) [1, 3]: 84.67 ± 0.79 nm |
| CC/C=C\CCOCOCCCCCCOC(=O)C(O)CN(CCCN1CCN(CCCN(CC(O)C(=O)OCCCCCCOCOCC/C=C\CC)CC(O)C(=O)OCCCCCCOCOCC/C=C\CC)CC1)CC(O)C(=O)OCCCCCCOCOCC/C=C\CC (stereo not drawn) [Compound L0225] | 3.13 × 10^8 | 2.15 × 10^9 | 0.10 ± 0.01 | 117.87 ± 1.55 | – |
| CCCC/C=C\CCOCOCCCCOC(=O)C(O)CN(CCCN1CCN(CCCN(CC(O)C(=O)OCCCCOCOCC/C=C\CCCC)CC(O)C(=O)OCCCCOCOCC/C=C\CCCC)CC1)CC(O)C(=O)OCCCCOCOCC/C=C\CCCC (stereo not drawn) [Compound L0226] | 1.41 × 10^8 | 1.24 × 10^9 | 0.09 ± 0.03 | 115.53 ± 1.04 | – |
| CCCCCCC(CCCCCC)C(=O)OCCCCCCOC(=O)C(O)CN(CCCN1CCN(CCCN(CC(O)C(=O)OCCCCCCOC(=O)C(CCCCCC)CCCCCC)CC(O)C(=O)OCCCCCCOC(=O)C(CCCCCC)CCCCCC)CC1)CC(O)C(=O)OCCCCCCOC(=O)C(CCCCCC)CCCCCC (stereo not drawn) [Compound L0227] | 3.49 × 10^8 | 2.49 × 10^8 | – | – | PDI [1, 4]: 0.15 ± 0.01; Particle size (nm) [1, 4]: 113.50 ± 0.96 nm; PDI [1, 3]: 0.13 ± 0.01; Particle size (nm) [1, 3]: 112.03 ± 0.65 nm |
| CCCCCCCCCCCCCCOC(=O)C(O)CN(CCCN1CCN(CCCN(CC(O)C(=O)OCCCCCCCCCCCCCC)CC(O)C(=O)OCCCCCCCCCCCCCC)CC1)CC(O)C(=O)OCCCCCCCCCCCCCC (stereo not drawn) [Compound L0228] | 8.22 × 10^6 | 9.28 × 10^9 | – | – | PDI [1, 5]: 0.18 ± 0.01; Particle size (nm) [1, 5]: 140.50 ± 1.21 nm; PDI [1, 6]: 0.13 ± 0.01; Particle size (nm) [1, 6]: 120.07 ± 0.60 nm |
| CCCCCCCC/C=C\CCCCCCCCNC(=O)C(O)CN(CCCN1CCN(CCCN(CC(O)C(=O)NCCCCCCCC/C=C\CCCCCCCC)CC(O)C(=O)NCCCCCCCC/C=C\CCCCCCCC)CC1)CC(O)C(=O)NCCCCCCCC/C=C\CCCCCCCC (stereo not drawn) [Compound L0229] | 5.61 × 10^6 | 2.46 × 10^8 | 0.10 ± 0.02 | 179.07 ± 0.38 | – |
